Measurements published in patent US20260356800A1, “POLYMORPH OF PHENYL PYRROLE HYDRAZINE CARBOXIMIDAMIDE COMPOUND” (SYNACT PHARMA ApS, priority 2022, published 2026).
Values after ≈ are worked out from the molar mass of the structure shown. Counter-ions that a name gives are not always drawn.

Experiments:
[1] = system: Ca^2± mobilisation; details: alternative pathways; cited from earlier work
[2] = system: MC1R; details: biased dual agonist; cited from earlier work
[3] = Thermodynamic solubility in buffer at 24 h (HPLC of supernatant); assay type: physicochemical; details: for solubility at 24 h: 0.2 m hcl/kcl, as free-base
Text: The solubility of a compound may be assessed by adding a surplus of the compound to a volume of solvent such that some of the compound is not dissolved, then isolating the non-dissolved compound and measuring the amount. The solubility of a compound may alternatively be assessed by adding a surplus of the compound to a volume of solvent such that some of the compound is not dissolved, and then measure the amount of compound in solution. Measuring the amount of compound in solution may be done using any suitable method, such as HPLC, titration, or spectrometry.
The solubility of AP1189 freebase, tosylate salt and fumarate salt were assessed in buffer solutions. An amount of the compound was suspended in buffer and agitated at ambient temperature for 24 hr, before the supernatant was sampled and analysed for the content of AP1189 by HPLC.

[4] = system: MC1R; details: cited from earlier work
[5] = system: MC1R-induced melanogenesis; details: cited from earlier work
[6] = system: ERK1/2-phosphorylation; details: alternative pathways; cited from earlier work
[7] = system: cAMP generation (MC1R and MC3R); details: cited from earlier work
[8] = system: MC3R; details: biased dual agonist; cited from earlier work
[9] = Initial polymorphism assessment: solubility of AP1189 freebase in solvent systems (aliquot addition); assay type: physicochemical; details: ambient, gently heated to ca. 40 °C if solid remained
Protocol: An initial polymorphism assessment was carried out in order to identify any potential alternate forms. The initial polymorphism assessment was carried out as follows: To ca. 7 mg of freebase Pattern 1 from DCM evaporation the appropriate solvent system was added in aliquots of 50 μL and if solid remained the vial was gently heated to ca. 40 °C to aid dissolution. Solvent addition was continued until the material had fully dissolved or 1 mL of the appropriate solvent system had been added (<10 mg/mL). Anti-solvent (t-BME) was added dropwise (with stirring) at ambient. If the solutions were already present as slurries prior to addition of anti-solvent, no anti-solvent was added. The experiments were temperature cycled between ambient temperature and 40 °C in 4 hour cycles for ca. 24 h with agitation. Slurries were isolated by centrifugation and solutions allowed to evaporate at ambient temperature. XRPD analysis was carried out for the solids which were obtained.

## NC(N)=N/N=C/C=C/c1cccn1-c1ccccc1[N+](=O)[O-] [AP1189, 2-{3-[1-(2-nitrophenyl)-1H-pyrrol-2-yl]prop-2-en-1-ylidine}hydrazine-1-carboximidamide]
[1]
  Ca2+ mobilisation: appear to induce alternative pathways including ERK1/2-phosphorylation and Ca^2 mobilisation
[2]
  agonism at MC1R: biased dual agonist at receptors MC1R and MC3R
[3]; acidic conditions
  Solubility at acidic conditions (in words): highly soluble at acidic conditions
[3]
  Solubility at pH 1.2 (in words): high solubility at pH 1.2
[3]; listed as AP1189 free base
  Solubility at pH 1.2 (in words): high solubility at pH 1.2 compared to the test compound AP1189 fumarate Pattern 1
[4]
  binding to MC1R: shown to bind the MC1R
[5]
  MC1R-induced melanogenesis: no MC1R-induced melanogenesis
[6]
  ERK1/2-phosphorylation: appear to induce alternative pathways including ERK1/2-phosphorylation
[7]
  canonical cAMP generation: does not provoke canonical cAMP generation
[8]
  agonism at MC3R: biased dual agonist at receptors MC1R and MC3R
[9]; Water
  solubility: < 7000 µg/mL
[9]; organic solvent or mixture, 2-Methyl THF
  solubility: ≥ 10000 µg/mL
[9]; organic solvent or mixture, 2-Propanol
  solubility: < 7000 µg/mL
[9]; organic solvent or mixture, 90% 2-Propanol: 10% Water (% v/v) (calculated aw 0.6)
  solubility: ≥ 10000 µg/mL
[9]; organic solvent or mixture, 98.5% Ethanol : 1.5% Water (% v/v) (calculated aw 0.2)
  solubility: ≥ 15000 µg/mL
[9]; organic solvent or mixture, Acetone
  solubility: ≥ 49000 µg/mL
[9]; organic solvent or mixture, Acetonitrile
  solubility: ≥ 27000 µg/mL
[9]; organic solvent or mixture, Dichloromethane
  solubility: < 7000 µg/mL
[9]; organic solvent or mixture, Dimethylsulfoxide
  solubility: ≥ 136000 µg/mL
[9]; organic solvent or mixture, Ethanol
  solubility: ≥ 13000 µg/mL
[9]; organic solvent or mixture, Ethyl Acetate
  solubility: < 7000 µg/mL
[9]; organic solvent or mixture, Heptane
  solubility: < 7000 µg/mL
[9]; organic solvent or mixture, Methanol
  solubility: ≥ 142000 µg/mL
[9]; organic solvent or mixture, Methylethyl Ketone
  solubility: ≥ 17000 µg/mL
[9]; organic solvent or mixture, Methylisobutyl Ketone
  solubility: < 7000 µg/mL
[9]; organic solvent or mixture, Tetrahydrofuran
  solubility: ≥ 35000 µg/mL
[9]; organic solvent or mixture, Toluene
  solubility: < 7000 µg/mL
[9]; organic solvent or mixture, tert-Butylmethyl ether
  solubility: < 7000 µg/mL

## NC(N)=N/N=C/C=C/c1cccn1-c1ccccc1[N+](=O)[O-] [Tosylate Salt Pattern 1, 2-{3-[1-(2-nitrophenyl)-1H-pyrrol-2-yl]prop-2-en-1-ylidine}hydrazine-1-carboximidamide tosylate]
[3]; pH 1.26, 0.2 M HCl/KCl, initial pH 1.22, 24 h pH 1.26, input 31 mM, ambient temperature
  solubility at 24 h: 0.31 mM
[3]; low pH, e.g. pH 1.2-1.3 or pH 4.5
  Solubility at low pH (in words): low solubility at low pH

## NC(N)=N/N=C/C=C/c1cccn1-c1ccccc1[N+](=O)[O-] [Fumarate Salt Pattern 1]
[3]; pH 1.29, 0.2 M HCl/KCl, initial pH 1.35 → 1.18, 24 h pH 1.29, input 38 mM, ambient temperature
  solubility at 24 h: 10.9 mM

## NC(N)=N/N=C/C=C/c1cccn1-c1ccccc1[N+](=O)[O-] [AP1189 freebase Pattern 1, 2-{3-[1-(2-nitrophenyl)-1H-pyrrol-2-yl]prop-2-en-1-ylidine}hydrazine-1-carboximidamide]
[3]; pH 1.29, 0.2 M HCl/KCl, initial pH 2.05 → 1.24, 24 h pH 1.29, input 83* mM (estimated), ambient temperature
  solubility at 24 h: > 44.1 mM
[3]; pH 1.54, FaSSGF (Fasted State Simulated Gastric Fluid), initial pH 1.60, 24 h pH 1.54, ambient temperature
  solubility at 24 h: 13.9 mM (≈ 4140 µg/mL)
[3]; pH 4.5, compared to AP1189 fumarate Pattern 1
  Solubility at pH 4.5 (in words): high solubility at pH 4.5 compared to test compound AP1189 fumarate Pattern 1
